Reference: US8859743B2, “Controlling microbial contamination in alcoholic fermentation process” (Arch Chemicals, Inc., priority 2009, dated 2014)

Experiments:
Type in all cases: cell-based
Lactobacilli = experiment: Count of Lactobacilli in treated fermentative must (MRS)
Saccharomyces cerevisiae = experiment: Count of fermentative yeast in treated fermentative must (WLN)
Wild yeast = experiment: Count of wild yeast in treated fermentative must (WLN+)
bacteria = experiment: Count of other bacteria in treated fermentative must (TSA)
[1] = in relation to the control sample 4

How did the “MRS UFC/mL Lactobacilli” value (Lactobacilli; fermentative must after treatment, blank 3.1 × 10^6) turn out when `CC[C@@]1([C@@H]2O[C@@H]([C@H]3O[C@@](O)(CO)[C@H](C)C[C@@H]3C)C[C@@H]2C)CC[C@H]([C@]2(C)CC[C@]3(C[C@H](O)[C@@H](C)[C@@H]([C@@H](C)[C@@H](OC)[C@H](C)C(=O)O)O3)O2)O1` [Sample 01, monensin] was run?
The value was 2.5 × 10^2 UFC/mL.

What about the “reduction in the Lactobacilli” value (Lactobacilli; [1]) of the same compound?
The value was “about 4 log”.

What about the “WLN UFC/mL Saccharomyces cerevisiae” value (Saccharomyces cerevisiae; fermentative must after treatment, blank 1.3 × 10^6) of the same compound?
The value was 1 × 10^5 UFC/mL.

And the “reduction in the fermentative yeast” value (Saccharomyces cerevisiae; [1])?
Its value is “about 1 log”.

And the “WLN+ UFC/mL Wild yeast” value (Wild yeast; fermentative must after treatment, blank 9.5 × 10^6)?
Its value is 2 × 10^4 UFC/mL.

And the “reduction in the wild yeast” value (Wild yeast; [1])?
The value was “about 3 log”.

What about the “TSA UFC/mL bacteria” value (bacteria; fermentative must after treatment, blank 6 × 10^5) of the same compound?
Its value is 7 × 10^3 UFC/mL.

What about the “reduction in other bacteria” value (bacteria; [1]) of the same compound?
Its value is “about 2 log”.
